Data from ChEMBL document CHEMBL3045775, “Methyl jasmonate-induced suppression of anthracnose rot in tomato fruit” (Crop Prot, 2007).
The source made the active and inactive calls. The calls are words filed in the database; no cut-off is given here.

Experiments:
Colletotrichum coccodes [1] = experiment: Antifungal activity against Colletotrichum coccodes infected tomato fruit assessed as decrease in fruit cracking at 100% v/v incubated for 7 days post-inoculation relative to control; assay type: functional, organism-based
Colletotrichum coccodes [2] = experiment: Antifungal activity against Colletotrichum coccodes infected tomato fruit assessed as suppression in lesion at 41.8 ul/l incubated for 20 min followed by compound wash out measured after 6 days relative to control; assay type: functional, organism-based
Colletotrichum coccodes [3] = experiment: Antifungal activity against Colletotrichum coccodes infected tomato fruit assessed as suppression in lesion at 41.8 ul/l inoculated on fruit pretreated with compound for 20 min measured after 9 days relative to control; assay type: functional
Colletotrichum coccodes [4] = experiment: Induction of Colletotrichum coccodes growth infected tomato fruit assessed as fruit cracking at 100% v/v incubated for 7 days post-inoculation relative to control; assay type: organism-based; conditions: in vivo, 168 h
Colletotrichum coccodes [5] = experiment: Antifungal activity against Colletotrichum coccodes infected tomato fruit assessed as spore germination at 44.8 ul/l inoculated on fruit pre-treated with compound for 7 days followed by 7 days incubation measured 24 hr post spore-inoculation on medium (reference value: 88.8 +/- 5.19%); assay type: functional
Colletotrichum coccodes [6] = experiment: Antifungal activity against Colletotrichum coccodes infected tomato fruit assessed as lesion area at 44.8 ul/l incubated for 7 days post-inoculation (reference value: 1.64 +/- 0.62 cm2); assay type: functional
Colletotrichum coccodes [7] = experiment: Antifungal activity against Colletotrichum coccodes assessed as spore germination at 44.8 ul/l inoculated on medium pretreated with compound for 24 hr followed by compound wash-out measured after 24 hr (100%); assay type: functional
Colletotrichum coccodes [8] = experiment: Antifungal activity against Colletotrichum coccodes assessed as spore production at 44.8 ul/l inoculated on medium pretreated with compound for 7 days followed by compound wash-out measured after 9 days (7.7 +/- 4.15 10^5/ml); assay type: functional
Colletotrichum coccodes [9] = experiment: Antifungal activity against Colletotrichum coccodes assessed as colony area at 44.8 ul/l inoculated on medium pretreated with compound for 7 days followed by compound wash-out measured after 7 days (5.98 +/- 0.36 cm2); assay type: functional
Colletotrichum coccodes [10] = experiment: Antifungal activity against Colletotrichum coccodes assessed as spore germination at 44.8 ul/l incubated for 24 hr post-inoculation (reference value: 100%); assay type: functional
Colletotrichum coccodes [11] = experiment: Antifungal activity against Colletotrichum coccodes assessed as spore production at 44.8 ul/l incubated for 9 days post-inoculation (reference value: 7.1 +/- 2.44 10^5/ml); assay type: functional
Colletotrichum coccodes [12] = experiment: Antifungal activity against Colletotrichum coccodes assessed as colony area at 44.8 ul/l incubated for 7 days post-inoculation (reference value: 9.55 +/- 0.25 cm2); assay type: functional
Colletotrichum coccodes [13] = experiment: Antifungal activity against Colletotrichum coccodes infected tomato fruit assessed as spore production at 44.8 ul/l inoculated on fruit pre-treated with compound for 7 days measured after 9 days (reference value: 11.2 +/- 4.29 10^5/ml); assay type: functional
Colletotrichum coccodes [14] = experiment: Antifungal activity against Colletotrichum coccodes infected tomato fruit assessed as lesion area at 44.8 ul/l inoculated on fruit pretreated with compound for 7 days measured after 7 days (reference value: 4.33 +/- 0.6 cm2); assay type: functional
Colletotrichum coccodes [15] = experiment: Antifungal activity against Colletotrichum coccodes infected tomato fruit assessed as spore germination at 44.8 ul/l incubated for 7 days post-inoculation followed by spore inoculation on medium measured after 24 hr (reference value: 96.5 +/- 2.66%); assay type: functional
Colletotrichum coccodes [16] = experiment: Antifungal activity against Colletotrichum coccodes infected tomato fruit assessed as spore production at 44.8 ul/l incubated for 9 days post-inoculation (reference value: 1.6 +/- 0.92 10^5/ml); assay type: functional

Structure (SMILES)	Activity (Colletotrichum coccodes [1])	Activity (Colletotrichum coccodes [2])	Activity (Colletotrichum coccodes [3]) [%]	Activity (Colletotrichum coccodes [4]) [%]	Activity (Colletotrichum coccodes [5]) [%]	Activity (Colletotrichum coccodes [6]) [cm2]	Activity (Colletotrichum coccodes [7]) [%]	Activity (Colletotrichum coccodes [8]) [×10⁵ /ml]	Activity (Colletotrichum coccodes [9]) [cm2]	Activity (Colletotrichum coccodes [10]) [%]	Activity (Colletotrichum coccodes [11]) [×10⁵ /ml]	Activity (Colletotrichum coccodes [12]) [cm2]	Activity (Colletotrichum coccodes [13]) [×10⁵ /ml]	Activity (Colletotrichum coccodes [14]) [cm2]	Activity (Colletotrichum coccodes [15]) [%]	Activity (Colletotrichum coccodes [16]) [×10⁵ /ml]
Cl	Active															
CC/C=C\CC1C(=O)CCC1CC(=O)OC (configuration not stated) [METHYL JASMONATE]	Active	inactive	20	23	55.2	2.79	99	7.6	4.55	99.5	6.9	8.18	7.7	4.74	51.6	1
